Data on 1 compound can be found in PMC10174618, “Monoterpenoid aryl hydrocarbon receptor allosteric antagonists protect against ultraviolet skin damage in female mice” (Nature Communications, 2023).

Assay in all cases: biochemical
Holding throughout (design): KINOMEscan scanMAX active site-directed competition binding assay, percent of control, 468 kinases
Details in all cases: competition binding, percent of control

One experiment has as its target CAMK4 (Homo sapiens, UniProt Q16566). The procedure, abridged:
(§1)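 Single-concentration screen (100 μM S-carvone) in a competition binding panel of 468 human kinases (KINOMEscan scanMAX); results given as percent of control, hit cutoff 35%.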

The target in the next experiment is PRKG1 (Homo sapiens, UniProt Q13976). A digest of the protocol: as §1
The target of another experiment is KIT(V559D) (Homo sapiens, UniProt P10721, V559D). The procedure, abridged:
as §1

In another experiment the target is T1, AMPK-alpha2 (Homo sapiens, UniProt P54646).
T1 construct: gene PRKAA2
T1 sequence (P54646 whole entry): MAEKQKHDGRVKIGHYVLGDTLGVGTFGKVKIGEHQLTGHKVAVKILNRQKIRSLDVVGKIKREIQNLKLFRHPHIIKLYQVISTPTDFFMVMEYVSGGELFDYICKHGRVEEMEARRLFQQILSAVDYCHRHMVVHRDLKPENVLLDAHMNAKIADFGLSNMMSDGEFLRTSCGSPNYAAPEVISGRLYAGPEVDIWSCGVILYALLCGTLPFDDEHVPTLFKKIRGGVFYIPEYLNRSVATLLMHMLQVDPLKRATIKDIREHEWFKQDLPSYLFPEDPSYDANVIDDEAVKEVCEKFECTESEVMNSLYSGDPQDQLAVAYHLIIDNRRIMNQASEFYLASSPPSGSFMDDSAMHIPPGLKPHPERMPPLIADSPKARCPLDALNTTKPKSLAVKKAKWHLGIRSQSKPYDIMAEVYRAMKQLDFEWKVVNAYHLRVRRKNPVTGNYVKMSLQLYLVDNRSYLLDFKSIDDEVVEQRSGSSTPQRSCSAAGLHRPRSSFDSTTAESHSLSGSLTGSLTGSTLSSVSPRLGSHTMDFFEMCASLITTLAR
The procedure, abridged: as §1

For the next experiment, the target named is FLT3(K663Q) (Homo sapiens, UniProt P36888, K663Q). The procedure, abridged: as §1
In another experiment the target is T2, PFTK1 (Homo sapiens, UniProt O94921).
T2 construct: gene CDK14
The procedure, abridged: as §1

The next experiment has as its target T3, MLK2 (Homo sapiens, UniProt Q02779).
T3 construct: gene MAP3K10
A digest of the protocol: as §1

For a further experiment, the target named is HIPK4 (Homo sapiens, UniProt Q8NE63). A digest of the protocol: as §1
Another experiment concerns the target HUNK (Homo sapiens, UniProt P57058). The procedure, abridged:
as §1

Experiment [1] deals with T4, ABL1(F317I)-nonphosphorylated (Homo sapiens, UniProt P00519, F317I).
T4 construct: nonphosphorylated
The procedure, abridged:
as §1

Another experiment deals with T5, MEK5 (Homo sapiens, UniProt Q13163).
T5 construct: gene MAP2K5
T5 sequence (Q13163 whole entry): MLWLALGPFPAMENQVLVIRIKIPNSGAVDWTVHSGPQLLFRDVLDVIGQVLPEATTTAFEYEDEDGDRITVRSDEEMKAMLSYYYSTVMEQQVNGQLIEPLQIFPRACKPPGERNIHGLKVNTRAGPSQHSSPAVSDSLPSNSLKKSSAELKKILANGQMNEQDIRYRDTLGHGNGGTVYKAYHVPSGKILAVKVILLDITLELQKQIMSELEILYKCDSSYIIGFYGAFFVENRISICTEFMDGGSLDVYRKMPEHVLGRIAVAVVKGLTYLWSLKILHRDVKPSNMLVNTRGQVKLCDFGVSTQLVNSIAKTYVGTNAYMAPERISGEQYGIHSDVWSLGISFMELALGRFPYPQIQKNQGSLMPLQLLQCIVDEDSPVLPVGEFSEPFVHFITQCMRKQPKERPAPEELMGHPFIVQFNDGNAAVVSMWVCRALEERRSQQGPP
The procedure, abridged: as §1

For the next experiment, the target named is ZAP70 (Homo sapiens, UniProt P43403). The procedure, abridged:
as §1

In a further experiment the target is CDKL1 (Homo sapiens, UniProt Q00532). A digest of the protocol:
as §1

The target of a further experiment is MUSK (Homo sapiens, UniProt O15146). The procedure, abridged: as §1
Chain of MUSK (O15146 whole entry): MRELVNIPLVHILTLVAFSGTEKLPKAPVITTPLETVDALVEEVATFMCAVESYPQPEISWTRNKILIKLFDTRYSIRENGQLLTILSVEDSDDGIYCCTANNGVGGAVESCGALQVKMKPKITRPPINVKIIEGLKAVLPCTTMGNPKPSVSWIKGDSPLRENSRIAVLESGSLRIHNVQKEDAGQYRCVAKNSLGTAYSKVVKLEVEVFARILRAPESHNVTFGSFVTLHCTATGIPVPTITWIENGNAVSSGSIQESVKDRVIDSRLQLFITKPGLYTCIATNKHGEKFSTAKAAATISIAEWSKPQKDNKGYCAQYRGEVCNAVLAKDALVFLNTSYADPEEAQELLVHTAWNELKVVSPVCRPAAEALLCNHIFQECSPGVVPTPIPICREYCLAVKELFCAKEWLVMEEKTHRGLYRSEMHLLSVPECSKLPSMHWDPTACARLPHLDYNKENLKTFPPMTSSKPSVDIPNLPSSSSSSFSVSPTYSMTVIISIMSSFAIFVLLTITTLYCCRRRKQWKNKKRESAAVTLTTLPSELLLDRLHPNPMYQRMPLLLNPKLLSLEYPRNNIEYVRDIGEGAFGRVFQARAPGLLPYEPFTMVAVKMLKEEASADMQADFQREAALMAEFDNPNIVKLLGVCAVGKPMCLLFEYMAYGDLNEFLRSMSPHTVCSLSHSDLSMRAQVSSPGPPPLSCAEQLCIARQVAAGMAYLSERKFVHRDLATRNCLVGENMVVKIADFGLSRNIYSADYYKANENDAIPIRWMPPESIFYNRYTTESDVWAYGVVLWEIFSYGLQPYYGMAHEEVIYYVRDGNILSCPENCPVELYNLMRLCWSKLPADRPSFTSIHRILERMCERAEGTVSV
The target in the next experiment is EPHB6 (Homo sapiens, UniProt O15197). The procedure, abridged:
as §1

The next experiment concerns the target T6, YANK2 (Homo sapiens, UniProt Q9NY57).
T6 construct: gene STK32B
A digest of the protocol: as §1

A further experiment concerns the target TEC (Homo sapiens, UniProt P42680). A digest of the protocol:
as §1

The next experiment deals with TSSK1B (Homo sapiens, UniProt Q9BXA7). The procedure, abridged:
as §1

Another experiment addresses EPHA2 (Homo sapiens, UniProt P29317). A digest of the protocol: as §1
The target of another experiment is PRKD3 (Homo sapiens, UniProt O94806). The procedure, abridged:
as §1

The target of another experiment is BLK (Homo sapiens, UniProt P51451). A digest of the protocol:
as §1

Another experiment addresses T7, p38-delta (Homo sapiens, UniProt O15264).
T7 construct: gene MAPK13
The procedure, abridged: as §1

Chain of CAMK4 (Q16566 whole entry): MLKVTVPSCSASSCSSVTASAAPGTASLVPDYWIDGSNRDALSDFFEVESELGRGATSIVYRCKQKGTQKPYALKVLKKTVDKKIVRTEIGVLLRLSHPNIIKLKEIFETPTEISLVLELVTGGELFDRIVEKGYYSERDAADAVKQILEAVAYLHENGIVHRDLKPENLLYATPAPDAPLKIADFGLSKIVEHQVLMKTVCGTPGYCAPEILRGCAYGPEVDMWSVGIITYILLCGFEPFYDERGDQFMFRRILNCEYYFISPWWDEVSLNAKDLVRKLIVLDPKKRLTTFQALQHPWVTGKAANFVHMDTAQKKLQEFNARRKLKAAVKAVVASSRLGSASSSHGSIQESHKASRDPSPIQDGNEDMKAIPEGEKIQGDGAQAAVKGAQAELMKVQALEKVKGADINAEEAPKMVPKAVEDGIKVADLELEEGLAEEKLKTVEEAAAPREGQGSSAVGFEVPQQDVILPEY
Chain of ZAP70 (P43403 whole entry): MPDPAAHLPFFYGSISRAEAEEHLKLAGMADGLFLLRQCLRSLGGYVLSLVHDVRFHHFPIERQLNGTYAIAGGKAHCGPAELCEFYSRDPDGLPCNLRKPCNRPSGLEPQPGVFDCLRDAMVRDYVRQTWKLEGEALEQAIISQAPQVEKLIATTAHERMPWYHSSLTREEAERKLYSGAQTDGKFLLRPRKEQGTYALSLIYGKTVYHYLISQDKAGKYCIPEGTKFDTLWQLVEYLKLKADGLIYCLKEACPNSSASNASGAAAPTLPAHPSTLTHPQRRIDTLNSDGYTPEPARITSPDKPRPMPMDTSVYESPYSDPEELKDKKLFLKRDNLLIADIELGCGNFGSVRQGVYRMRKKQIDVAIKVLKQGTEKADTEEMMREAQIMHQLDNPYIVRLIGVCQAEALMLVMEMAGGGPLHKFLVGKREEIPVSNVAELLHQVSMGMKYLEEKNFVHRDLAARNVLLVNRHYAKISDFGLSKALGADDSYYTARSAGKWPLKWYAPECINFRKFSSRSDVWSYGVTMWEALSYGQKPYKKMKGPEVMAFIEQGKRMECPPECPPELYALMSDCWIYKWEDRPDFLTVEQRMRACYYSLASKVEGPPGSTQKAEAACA
T3 sequence (Q02779 whole entry): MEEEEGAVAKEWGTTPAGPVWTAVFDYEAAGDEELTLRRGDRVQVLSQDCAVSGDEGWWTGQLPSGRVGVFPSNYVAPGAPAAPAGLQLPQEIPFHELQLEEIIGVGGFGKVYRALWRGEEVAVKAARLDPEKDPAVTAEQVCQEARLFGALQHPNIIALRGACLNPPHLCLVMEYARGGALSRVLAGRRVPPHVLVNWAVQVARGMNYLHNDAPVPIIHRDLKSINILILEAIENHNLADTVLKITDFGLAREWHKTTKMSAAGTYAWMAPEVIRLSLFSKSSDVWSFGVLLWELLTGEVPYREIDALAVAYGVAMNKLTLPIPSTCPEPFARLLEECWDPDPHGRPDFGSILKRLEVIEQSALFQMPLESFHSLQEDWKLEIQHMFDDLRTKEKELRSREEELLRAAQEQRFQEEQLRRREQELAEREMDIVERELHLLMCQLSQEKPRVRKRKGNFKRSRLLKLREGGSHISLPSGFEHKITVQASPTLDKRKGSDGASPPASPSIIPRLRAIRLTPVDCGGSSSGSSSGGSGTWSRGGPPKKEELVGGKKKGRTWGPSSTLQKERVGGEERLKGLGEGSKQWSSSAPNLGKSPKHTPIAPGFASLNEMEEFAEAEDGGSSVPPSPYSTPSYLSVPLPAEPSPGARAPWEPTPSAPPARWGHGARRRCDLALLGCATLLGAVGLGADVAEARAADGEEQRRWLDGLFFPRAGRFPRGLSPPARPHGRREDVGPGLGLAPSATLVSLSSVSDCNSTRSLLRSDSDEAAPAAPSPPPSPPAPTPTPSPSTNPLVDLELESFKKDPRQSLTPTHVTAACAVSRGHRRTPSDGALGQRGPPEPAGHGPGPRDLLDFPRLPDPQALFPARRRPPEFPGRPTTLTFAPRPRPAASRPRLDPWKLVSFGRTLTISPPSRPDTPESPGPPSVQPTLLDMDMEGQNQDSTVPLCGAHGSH
Chain of TEC (P42680 whole entry): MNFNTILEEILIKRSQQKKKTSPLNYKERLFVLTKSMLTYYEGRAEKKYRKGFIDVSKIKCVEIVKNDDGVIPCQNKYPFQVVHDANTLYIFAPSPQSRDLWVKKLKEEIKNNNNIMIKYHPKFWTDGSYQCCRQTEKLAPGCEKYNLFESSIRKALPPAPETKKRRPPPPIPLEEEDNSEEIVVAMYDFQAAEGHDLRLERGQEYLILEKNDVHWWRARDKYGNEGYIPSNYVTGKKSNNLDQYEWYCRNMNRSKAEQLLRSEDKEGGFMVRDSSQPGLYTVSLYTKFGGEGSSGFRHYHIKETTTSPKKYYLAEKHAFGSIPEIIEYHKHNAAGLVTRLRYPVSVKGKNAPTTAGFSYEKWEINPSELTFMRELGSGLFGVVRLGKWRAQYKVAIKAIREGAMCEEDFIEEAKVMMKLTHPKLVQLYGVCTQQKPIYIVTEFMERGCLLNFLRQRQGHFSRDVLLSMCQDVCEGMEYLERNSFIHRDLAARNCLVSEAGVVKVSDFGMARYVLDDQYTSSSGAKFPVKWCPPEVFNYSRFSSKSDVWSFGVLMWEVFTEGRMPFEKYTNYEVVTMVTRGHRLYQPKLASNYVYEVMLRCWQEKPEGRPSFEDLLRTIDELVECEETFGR
Chain of TSSK1B (Q9BXA7 whole entry): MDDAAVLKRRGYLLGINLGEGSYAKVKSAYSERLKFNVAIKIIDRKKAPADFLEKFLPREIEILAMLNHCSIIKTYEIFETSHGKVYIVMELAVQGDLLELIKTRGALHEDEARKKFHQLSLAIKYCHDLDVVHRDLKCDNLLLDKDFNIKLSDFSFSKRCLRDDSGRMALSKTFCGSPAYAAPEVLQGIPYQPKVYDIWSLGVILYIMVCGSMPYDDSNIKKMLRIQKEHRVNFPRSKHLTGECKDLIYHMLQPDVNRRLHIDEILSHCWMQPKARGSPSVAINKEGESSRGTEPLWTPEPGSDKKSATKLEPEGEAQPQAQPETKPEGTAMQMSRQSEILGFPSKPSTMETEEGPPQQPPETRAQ

Consider `C=C(C)[C@H]1CC=C(C)C(=O)C1` [S-carvone], for which the remaining binding at 100 µM on CAMK4 was 70%; at PRKG1, 84%; at KIT(V559D), 89%; at AMPK-alpha2, 88%; at FLT3(K663Q), 95%; at PFTK1, 93%. Moreover, the remaining binding at 100 µM on MLK2 amounted to 83%; on HIPK4 it was 66%; on HUNK, 63%; in experiment [1] it was 64%; on MEK5, 74%; on ZAP70, 84%. For the same compound, the remaining binding at 100 µM on CDKL1 is 70%; at MUSK, 100%; on EPHB6, 51%; at YANK2, 79%; on TEC, 96%; at TSSK1B, 95%. Also, the remaining binding at 100 µM at EPHA2 stood at 71%; on PRKD3, 92%; on BLK, 80%; at p38-delta, 57%.
